Measured values as given in paper PMC8956739, “A synthetic lipopeptide targeting top-priority multidrug-resistant Gram-negative pathogens” (Nature Communications, 2022).
Converted amounts (≈) assume the structure as drawn. Where two headings read alike, the source gives them in different places. Residues, ends and D or L forms follow the SMILES beside them.

Legend:
[1] = system: K. pneumoniae FADDI-KP065; assay type: cell-based, Klebsiella pneumoniae; settings: FADDI-KP065
Method in brief: (§1)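 Read-out is the minimum inhibitory concentration, obtained by serially diluting compound in cation-adjusted Mueller–Hinton medium and exposing each isolate in microdilution format.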

[2] = system: K. pneumoniae FADDI-KP032; assay type: cell-based, Klebsiella pneumoniae; settings: FADDI-KP032
Method in brief: as §1

[3] = Cell viability after 24 h treatment; assay type: cell-based, human; settings: human, KCNJ16 knockout HK-2 cells (kidney proximal tubular), Cell viability, KCNJ16 KO, KCNJ16 knockout HK-2 cells, 24 h, Fig. 6b
Description: Fig. 6 Transcriptomic changes in human kidney proximal tubular HK-2 cells following treatments with polymyxin B (PMB), colistin (COL), F287, F319, and F365. a Numbers of differentially expressed genes. Distinctive intersections are color-coded. b Cell viability difference (two-tailed Student’s t-test, n = 4 biologically independent cells, Benjamini–Hochberg adjusted P-values) between wild-type HK-2 and KCNJ16 knockout (KO) cells following 24 h treatment with lipopeptides. n.s., not significant; ^*adjusted P < 0.05, ^**adjusted P < 0.01, ^***adjusted P < 0.001. Data are shown as mean ± s.d. and individual data points. c Extracted transcriptional regulatory network from Signor database with 1-step neighbor constraints (enlarged for detail). Source data are provided as a Source Data file.

HK-2 cells = test: Transcriptomic analysis (RNA-Seq) of kidney cells; assay type: cell-based, human; settings: for logFC, differential gene expression for all genes / log2FC / Fold Change: HK-2 RNA-Seq; for log2FC: Fig. 5f; for Fold Change: Fig. 5e; for num.of.degs: number of differentially expressed genes per peptide, Fig. 6a
Description: Human Kidney-2 (HK-2) cells (CRL-2190™, American Type Culture Collection) were treated with 100 μM colistin, F287, F319, and F365 for 24 h. Previous transcriptomic data of HK-2 cells following 24 h treatment with polymyxin B[26] were also employed for comparative bioinformatic analysis. RNA extraction was conducted as described above. Raw reads were aligned to genome GRCh38.94 (Ensembl genome database, http://ftp.ensembl.org/pub/release-94/fasta/homo_sapiens/dna/) using […] and summarized by featureCounts. Differentially expressed genes were determined using limma 3.46.0, with a combination of fold change ≥ 1.5 and FDR (by Benjamini–Hochberg algorithm) adjusted P-value ≤ 0.05 (n = 3). Key regulatory genes of HK-2 were analyzed in the context of signaling network in the Signor 2.0 database. Enrichment analysis of gene differential expression in HK-2 cells was conducted using enrichR 2.1. UpSetR 1.4.0, ComplexHeatmap 2.6.2, circlize 0.4.13 and iGraph 1.2.11 were used for data visualization. Raw data were deposited in the Short Reads Archive database under accession numbers SRR15239061-SRR15239078.

[4] = system: P. aeruginosa FADDI-PA025; assay type: cell-based, Pseudomonas aeruginosa; settings: FADDI-PA025
Method in brief: as §1

[5] = system: MDR clinical isolates of P. aeruginosa (n = 213, 55 carbapenem-resistant); assay type: cell-based, Pseudomonas aeruginosa
Method in brief: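 MICs came from broth microdilution in cation-adjusted Mueller–Hinton broth against clinical isolates. For surfactant binding, P. aeruginosa ATCC 27853 was additionally tested with 10% Survanta® (v/v, 2.5 mg/mL phospholipids) added to the polymyxin-containing broth.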

[6] = system: P. aeruginosa FADDI-PA038; assay type: cell-based, Pseudomonas aeruginosa; settings: FADDI-PA038
Method in brief: as §1

P. aeruginosa ATCC 27853 = assay type: cell-based, Pseudomonas aeruginosa; settings: ATCC 27853
Method in brief: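 Compounds were serially diluted in CaMHB, bacteria were added, and the lowest inhibitory concentration was recorded after broth microdilution testing.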

[7] = Rep1, replicate 1, read-out: Cell viability, KCNJ16 KO, Rep1
[8] = Rep2, replicate 2, read-out: Cell viability, KCNJ16 KO, Rep2
[9] = Rep3, replicate 3, read-out: Cell viability, KCNJ16 KO, Rep3
[10] = Rep4, replicate 4, read-out: Cell viability, KCNJ16 KO, Rep4
[11] = locus chr1 629640-630683 (ENSG00000225630 by coordinates)
[12] = MDR clinical isolates of (n = 213, 55 carbapenem-resistant)

Row | Compound | MIC K. pneumoniae FADDI-KP065 [1] [µg/mL] | MIC K. pneumoniae FADDI-KP032 [2] [µg/mL] | viability at 24 h [3, 7] [%] | viability at 24 h [3, 8] [%] | viability at 24 h [3, 9] [%] | viability at 24 h [3, 10] [%] | logFC, differential gene expression for all genes (HK-2 cells; Geneid ENSG00000223972) | logFC, differential gene expression for all genes (HK-2 cells; Geneid ENSG00000227232) | logFC, differential gene expression for all genes (HK-2 cells; Geneid ENSG00000233750) | logFC, differential gene expression for all genes (HK-2 cells; Geneid ENSG00000278267) | log2FC (HK-2 cells; gene ENSG00000017483 SLC38A5) | log2FC (HK-2 cells; gene ENSG00000023445 BIRC3) | log2FC (HK-2 cells; gene ENSG00000056558 TRAF1) | log2FC (HK-2 cells; gene ENSG00000066468 FGFR2) | Fold Change (HK-2 cells; [11]) | num.of.degs (HK-2 cells) | MIC P. aeruginosa FADDI-PA025 [4] [µg/mL] | MIC P. aeruginosa FADDI-PA038 [6] [µg/mL] | MIC P. aeruginosa ATCC 27853 (P. aeruginosa ATCC 27853) [µg/mL] | MIC, No Survanta (P. aeruginosa ATCC 27853) [µg/mL] | other results
1 | CCCCCCCC(=O)N[C@@H](CCN)C(=O)N[C@H](C(=O)N[C@@H](CN)C(=O)N[C@H]1CCNC(=O)[C@H]([C@@H](C)O)NC(=O)[C@H](CCN)NC(=O)[C@H](CCN)NC(=O)[C@H](CC)NC(=O)[C@@H](CC(C)C)NC(=O)[C@H](CCN)NC1=O)[C@@H](C)O [Lipopeptide F287] (HELM PEPTIDE1{[CCCCCCCC(=O)[*:2]].[Dab].T.[NC[C@H](N[*:1])C(=O)[*:2]].[Dab].[Dab].[dL].[Abu].[Dab].[Dab].T}$PEPTIDE1,PEPTIDE1,5:R3-11:R2$$$V2.0) | <0.125 | <0.125 | 91.7 | 77.1 | 82.8 | 69.6 | -1.073 | -0.08434 | -0.6124 | 0.2137 | 0.6808 | -0.3448 | 0.757 | -1.141 | 0.9406 | 1076 | 2 (≈ 1.8 µM) | 0.5 (≈ 0.449 µM) | 0.5 (≈ 0.449 µM) | 1 (≈ 0.898 µM) | Fold Change (HK-2 cells; locus chr1 629062-629433 (ENSG00000225972 by coordinates)): 0.9117; MIC50 [5, 12]: 1 µg/mL (≈ 0.898 µM); MIC90 [5, 12]: 1 µg/mL (≈ 0.898 µM); Number of isolates ([5]; isolates with MIC 0.05 μg/mL (so in the source)): 0; Number of isolates ([5]; isolates with MIC 0.125 μg/mL (so in the source)): 0; Number of isolates ([5]; isolates with MIC 0.25 μg/mL (so in the source)): 7; Number of isolates ([5]; isolates with MIC 0.5 μg/mL (so in the source)): 26; Number of isolates ([5]; isolates with MIC 1 μg/mL (so in the source)): 168; Number of isolates ([5]; isolates with MIC 2 μg/mL (so in the source)): 9; Number of isolates ([5]; isolates with MIC 4 μg/mL (so in the source)): 0; Number of isolates ([5]; isolates with MIC 8 μg/mL (so in the source)): 1; Number of isolates ([5]; isolates with MIC 16 μg/mL (so in the source)): 0; Number of isolates ([5]; isolates with MIC 32 μg/mL (so in the source)): 2; Number of isolates ([5]; isolates with MIC 64 μg/mL (so in the source)): 0; Number of isolates ([5]; isolates with MIC >64 μg/mL (so in the source)): 0
2 | CCCCCCCC(=O)N[C@@H](CCN)C(=O)N[C@H](C(=O)N[C@@H](CCN)C(=O)N[C@H]1CCNC(=O)[C@H]([C@@H](C)O)NC(=O)[C@H](CCN)NC(=O)[C@H](CCN)NC(=O)[C@H](CC)NC(=O)[C@@H](CC(C)C)NC(=O)[C@H](CCN)NC1=O)[C@@H](C)O [Lipopeptide F319] (HELM PEPTIDE1{[CCCCCCCC(=O)[*:2]].[Dab].T.[Dab].[Dab].[Dab].[dL].[Abu].[Dab].[Dab].T}$PEPTIDE1,PEPTIDE1,5:R3-11:R2$$$V2.0) | <0.125 | 0.25 (≈ 0.222 µM) | 104 | 95.5 | 91.1 | 92.6 | -0.1551 | -0.02116 | -0.4424 | 0.1872 | 0.557 | -0.6344 | 0.7378 | -1.084 | 0.3467 | 763 | 4 (≈ 3.55 µM) | 4 (≈ 3.55 µM) | 0.5 (≈ 0.443 µM) | 1 (≈ 0.887 µM) | Fold Change (HK-2 cells; locus chr1 632757-633438 (ENSG00000229344 by coordinates)): 0.6059
